Laboratory results as given in patent publication US9067928B2 (Genentech, Inc., priority 2008, dated 2015).

What follows are molecules tested against T1, Bcl-xL (Homo sapiens, UniProt Q07817) (assay: Alpha Screen Bcl-xL binding assay, competition with Bim26-mer). Conditions: values listed in the order of Table 1; read-out: Alphascreen results (IC50).
T1 construct: made in house
T1 sequence (Q07817 whole entry, species assumed): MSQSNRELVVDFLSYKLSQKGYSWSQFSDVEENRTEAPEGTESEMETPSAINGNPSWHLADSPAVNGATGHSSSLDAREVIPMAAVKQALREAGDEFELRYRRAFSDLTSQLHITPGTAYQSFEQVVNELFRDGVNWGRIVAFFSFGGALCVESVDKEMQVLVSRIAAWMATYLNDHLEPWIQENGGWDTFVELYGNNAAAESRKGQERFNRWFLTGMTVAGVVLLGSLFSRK
Procedure: The measurement of competition of compounds of the invention with Bim26-mer for a Bcl-2 family protein binding site using an Alpha Screen Bcl-xL Binding Assay:
The BH3 proteins ALPHASCREEN™ assay was used to identify active small molecules Bcl-2 family protein screen. e.g., Bcl-xL, hmMcl-1 screen. To determine an accurate estimation of the IC50, the compounds were routinely tested at starting concentrations, 100 μM and/or 1 μM and serially titrated 3 fold over 11 dilutions.
The beads come in close proximity when the protein and the peptides interact. Donor beads contain a photosensitiser that converts oxygen to an excited form of O2 at an excitation of 680 nm. Energy is transformed from the singlet oxygen and reacts with chemiluminescers on the acceptor bead, resulting in light emission at 520-620 nm. […] With this information, the IC50 of each compound was calculated
GST-Bcl-xL, GST-hmMcl-1 and biotinylated GST proteins were prepared in-house and were stored as stock solutions at −80° C. The biotinylated-Bak, and biotinylated-Bim peptides were purchased from Auspep and were stored as 500 μM stock solutions in 100% DMSO at −80° C. The ALPHASCREEN™ GST (Glutathione-S-Transferase) Detection Kit was obtained from Perkin Elmer Lifesciences (Cat #6760603R). The Proxiplates, white 384 well flat-Bottom plates were purchased from Interpath Services, Melbourne (Cat #784075). The seals to cover the plates were purchased from Proscience. Melbourne (Cat#784075). DMSO was purchased from AnalaR. The 384 deep well plates and the Polypropylene 50 μL, V bottom polypropylene compound plates were purchased from Matrical.
Compounds of the invention were prepared as 10 mM stocks with 100% DMSO on the day prior to performing the assay. […] To achieve a final compound concentration of 1 μM, in a separate matrical plate, 28 μL of 100% DMSO and 2 μL of 10 mM compound was added to a well, mixed well. 2 μL of this solution was taken and added to 38 μL of 100% DMSO. 20 μL of this solution was added to the test matrical plate. Several control compounds were included in the test plates. For the control wells 15 μL 100% DMSO only was added to the appropriate wells of each plate. The compound plates were then serially diluted 2 fold using the MiniTrak. Once titrations were complete, the compound plate was immediately covered with a foil seal to prevent evaporation.
The assay and bead buffers were prepared fresh. Each titrated compound plate was assayed in duplicate. The following volumes were sufficient to run 12 Proxiplates (4 assay plates run in duplicate in each of Bclxl, hmMcl and counter assays)
Protein and Peptide Preparation; and Assay Performance • 1. The assay and bead buffers were used to prepare the acceptor and donor solutions. ALPHASCREEN™ beads are light sensitive and therefore prepared in a darkened room. 2.5 μL of beads were added per 1 mL of buffer. • 2. The volume of protein or peptide to add was calculated using the following formula:
[formula] • C1=Final Concentration of protein/peptide • C2=Stock Concentration of protein/peptide • V1=Total Volume of Acceptor/Donor Solution • V2=Volume of stock protein/Peptide to add to Acceptor/Donor solution • 3. The assay components were prepared as separate Acceptor and Donor Solutions. The Acceptor Solution contained Acceptor heads and target protein, while the Donor Solution contained Donor beads and biotinylated peptide.
• 4. After the solutions were prepared, they were left to incubate for 30 minutes at room temperature to allow the beads to bind to the protein and the peptide. • 5. 50 μL of Bcl-xL solution, 50 μL of hmMcl-1 solution and 50 µL of biotinylated-GST were added into separate deep wells on an assay plate. A control […]. Assay/Bead buffer was added separate well plates (no protein). • 6.
`COc1ccc(-c2sc(-c3ccc4c(c3)N(C(=O)Nc3nc5ccccc5s3)CCO4)nc2C(=O)O)cc1` [Example 66, 2-(4-(benzo[d]thiazol-2-ylcarbamoyl)-3,4-dihydro-2H-benzo[b][1,4]oxazin-6-yl)-5-(4-methoxyphenyl)thiazole-4-carboxylic acid] was tested, and the IC50 was 110 nM. Molecule `COc1cccc(-c2sc(-c3ccc4c(c3)N(C(=O)Nc3nc5ccccc5s3)CCO4)nc2C(=O)O)c1` [Example 67, 2-(4-(benzo[d]thiazol-2-ylcarbamoyl)-3,4-dihydro-2H-benzo[b][1,4]oxazin-6-yl)-5-(3-methoxyphenyl)thiazole-4-carboxylic acid] has an IC50 of 200 nM. `O=C(O)c1nc(-c2ccc3c(c2)N(C(=O)Nc2nc4ccccc4s2)CCC3)ccc1OCCOc1ccccc1` [Example 19] gave an IC50 of 2 nM. In the case of `O=C(O)c1nc(-c2ccc3c(c2)N(C(=O)Nc2nc4ccccc4s2)CCC3)ccc1OCCCOc1cccc2cccnc12` [Example 46], the IC50 is reported as 10 nM. With `COc1ccc(Oc2sc(-c3ccc4c(c3)N(C(=O)Nc3nc5ccccc5s3)CCO4)nc2C(=O)O)cc1` [Example 69, 2-(4-(benzo[d]thiazol-2-ylcarbamoyl)-3,4-dihydro-2H-benzo[b][1,4]oxazin-6-yl)-5-(4-methoxyphenoxy)thiazole-4-carboxylic acid] the IC50 was 680 nM. For `O=C(O)c1nc(-c2ccc3c(c2)N(C(=O)Nc2nc4ccccc4s2)CCC3)sc1Oc1ccc(-n2ncc3cncnc32)cc1` [Example 93, 5-(4-(1H-pyrazolo[3,4-d]pyrimidin-1-yl)phenoxy)-2-(1-(benzo[d]thiazol-2-ylcarbamoyl)-1,2,3,4-tetrahydroquinolin-7-yl)thiazole 4-carboxylic acid], the IC50 was 40 nM. `NCc1ccc(OCCCc2sc(-c3ccc4c(c3)N(C(=O)Nc3nc5ccccc5s3)CCO4)nc2C(=O)O)cc1` [Example 83, 5-(3-(4-(aminomethyl)phenoxy)propyl)-2-(4-(benzo[d]thiazol-2-ylcarbamoyl)-3,4-dihydro-2H-benzo[b][1,4]oxazin-6-yl)thiazole-4-carboxylic acid] was tested, and the IC50 was 5 nM. Molecule `O=C(O)c1nc(-c2ccc3c(c2)N(C(=O)Nc2nc4ccccc4s2)CCC3)sc1Oc1ccc(F)cc1` [Example 65, 2-(1-(benzo[d]thiazol-2-ylcarbamoyl)-1,2,3,4-tetrahydroquinolin-7-yl)-5-(4-fluorophenoxy)thiazole-4-carboxylic acid] has an IC50 of 230 nM. For `Nc1cccc(OCCCc2sc(-c3ccc4c(c3)N(C(=O)Nc3nc5ccccc5s3)CCC4)nc2C(=O)O)c1` [Example 82, 5-(3-(3-aminophenoxy)propyl)-2-(1-(benzo[d]thiazol-2-ylcarbamoyl)-1,2,3,4-tetrahydroquinolin-7-yl)thiazole-4-carboxylic acid], the IC50 was 0.7 nM. In the case of `CS(=O)(=O)NC(=O)c1nc(-c2ccc3c(c2)N(C(=O)Nc2nc4ccccc4s2)CCO3)ccc1OCCCc1ccccc1` [Example 91, N-(benzo[d]thiazol-2-yl)-6-(6-(methylsulfonylcarbamoyl)-5-(3-phenylpropoxy)pyridin-2-yl)-2H-benzo[b][1,4]oxazin-4(3H)-carboxamide], the IC50 is reported as 140 nM. Molecule `CC(C)(C)OC(=O)Nc1ccc(OCCCc2sc(-c3ccc4c(c3)N(C(=O)Nc3nc5ccccc5s3)CCC4)nc2C(=O)O)cc1` [Example 85, 2-(1-(benzo[d]thiazol-2-ylcarbamoyl)-1,2,3,4-tetrahydroquinolin-7-yl)-5-(3-(4-(tert-butoxycarbonylamino)phenoxy)propyl)thiazole-4-carboxylic acid] has an IC50 of 0.5 nM. For `O=C(O)c1nc(-c2ccc3c(c2)N(C(=O)Nc2nc4ccccc4s2)CCC3)sc1CCCOc1ccccc1` [Example 78, 2-(1-(benzo[d]thiazol-2-ylcarbamoyl)-1,2,3,4-tetrahydroquinolin-7-yl)-5-(3-phenoxypropyl)thiazole-4-carboxylic acid], the IC50 was 0.6 nM. With `O=C(O)c1nc(-c2ccc3c(c2)N(C(=O)Nc2nc4ccccc4s2)CCO3)ccc1OCCCc1ccccc1` [Example 88, 6-(4-(benzo[d]thiazol-2-ylcarbamoyl)-3,4-dihydro-2H-benzo[b][1,4]oxazin-6-yl)-3-(3-phenylpropoxy)picolinic acid] the IC50 was 65 nM. For `COc1ccc(-c2sc(-c3ccc4c(c3)N(C(=O)Nc3nc5ccc(F)cc5s3)CCC4)nc2C(=O)O)cc1` [Example 72, 2-(1-(6-fluorobenzo[d]thiazol-2-ylcarbamoyl)-1,2,3,4-tetrahydroquinolin-7-yl)-5-(4-methoxyphenyl)thiazole-4-carboxylic acid], the IC50 was 10100 nM. Molecule `CN1CCN(C(=O)Nc2nc3ccccc3s2)c2cc(-c3cccc(C(=O)O)n3)ccc21` [Example 3] has an IC50 of 5390 nM. `Nc1cccc(OCc2cccc(-c3ccc(-c4ccc5c(c4)N(C(=O)Nc4nc6ccccc6s4)CCC5)nc3C(=O)O)c2)c1` [Example 41] was tested, and the IC50 was 5 nM. In the case of `O=C(O)c1nc(-c2ccc3c(c2)N(C(=O)Nc2nc4ccccc4s2)CCO3)sc1CCCCc1ccccc1` [Example 77, 2-(4-(benzo[d]thiazol-2-ylcarbamoyl)-3,4-dihydro-2H-benzo[b][1,4]oxazin-6-yl)-5-(4-phenylbutyl)thiazole-4-carboxylic acid], the IC50 is reported as 120 nM. In the case of `O=C(O)c1nc(-c2ccc3c(c2)N(C(=O)Nc2cc4ccccn4n2)CCO3)ccc1OCCCc1ccccc1` [Example 89, 3-(3-phenylpropoxy)-6-(4-(pyrazolo[1,5-a]pyridin-2-ylcarbamoyl)-3,4-dihydro-2H-benzo[b][1,4]oxazin-6-yl)picolinic acid], the IC50 is reported as 235 nM. Work on `NC(=O)c1nc(-c2ccc3c(c2)N(C(=O)Nc2nc4ccccc4s2)CCC3)sc1Oc1ccc(F)cc1` [Example 70, 2-(1-(benzo[d]thiazol-2-ylcarbamoyl)-1,2,3,4-tetrahydroquinolin-7-yl)-5-{4-fluorophenoxy)thiazole-4-carboxamide] yielded an IC50 of 10000 nM. `CN(CCOc1ccccc1)c1sc(-c2ccc3c(c2)N(C(=O)Nc2nc4ccccc4s2)CCO3)nc1C(=O)O` [Example 76, 2-(4-(benzo[d]thiazol-2-ylcarbamoyl)-3,4-dihydro-2H-benzo[b][1,4]oxazin-6-yl)-5-(methyl(2-phenoxyethyl)amino)thiazole-4-carboxylic acid] showed an IC50 of 390 nM. For `Cc1ccc(-c2sc(-c3ccc4c(c3)N(C(=O)Nc3nc5ccccc5s3)CCO4)nc2C(=O)O)cc1` [Example 64, 2-(4-(benzo[d]thiazol-2-ylcarbamoyl)-3,4-dihydro-2H-benzo[b][1,4]oxazin-6-yl)-5-p-tolylthiazole-4-carboxylic acid], the IC50 was 310 nM. With `CC(C)COc1ccc(-c2ccc3c(c2)N(C(=O)Nc2nc4ccccc4s2)CCC3)nc1C(=O)O` [Example 4] the IC50 was 1440 nM. In the case of `O=C(O)c1nc(-c2ccc3c(c2)N(C(=O)Nc2nc4ccccc4s2)CCO3)sc1CCCSc1ccncc1` [Example 73, 2-(4-(benzo[d]thiazol-2-ylcarbamoyl)-3,4-dihydro-2H-benzo[b][1,4]oxazin-6-yl)-5-(3-(pyridin-4-ylthio)propyl)thiazole-4-carboxylic acid], the IC50 is reported as 8 nM.
